Assay results reported in patent publication US10487068B2, “Pyridazine derivatives as RORc modulators” (Genentech, Inc., priority 2015, dated 2019).

Target: T1, RORc ligand binding domain (Homo sapiens, UniProt P51449)
T1 sequence (P51449 269-508 limits assumed): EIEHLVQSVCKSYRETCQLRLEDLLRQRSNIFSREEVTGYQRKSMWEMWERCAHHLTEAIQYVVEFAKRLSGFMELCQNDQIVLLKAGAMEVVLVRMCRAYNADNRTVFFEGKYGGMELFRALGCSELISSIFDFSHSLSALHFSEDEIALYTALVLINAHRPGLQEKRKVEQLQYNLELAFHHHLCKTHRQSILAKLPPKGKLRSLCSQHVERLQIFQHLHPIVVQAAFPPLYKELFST
Experiment: In Vitro RORc Ligand Binding Assay
Details: RORc IC50, radioligand 25-[3H]hydroxycholesterol 6 nM; 0.6 ug/mL RORc receptor; 3 h at 25° C.

| IC50 | SMILES |
| --- | --- |
| 21.7 nM | Cc1nnc(-c2cncc([C@@]34CC[C@@H](c5cc(-c6c(F)cccc6F)nnc53)C4(C)C)n2)o1 [Example 35, 2-(6-((5R,8S)-3-(2,6-difluorophenyl)-9,9-dimethyl-5,6,7,8-tetrahydro-5,8-methanocinnolin-8-yl)pyrazin-2-yl)-5-methyl-1,3,4-oxadiazole] |
| 37.1 nM | COCCNC(=O)c1cncc([C@@]23CC[C@@H](c4cc(-c5c(F)cccc5F)nnc42)C3(C)C)n1 [Example 36, 6-((5R,8S)-3-(2,6-difluorophenyl)-9,9-dimethyl-5,6,7,8-tetrahydro-5,8-methanocinnolin-8-yl)-N-(2-methoxyethyl)pyrazine-2-carboxamide] |
| 48.2 nM | CC1(C)[C@H]2CC[C@]1(c1cccc(C(=O)N3CCOCC3)n1)c1nnc(-c3c(F)cccc3F)cc12 [Example 37, (6-((5R,8S)-3-(2,6-difluorophenyl)-9,9-dimethyl-5,6,7,8-tetrahydro-5,8-methanocinnolin-8-yl)pyridin-2-yl)(morpholino)methanone] |
| 37.7 nM | CN(CCO)C(=O)c1cccc([C@@]23CC[C@@H](c4cc(-c5c(F)cccc5F)nnc42)C3(C)C)n1 [Example 38, 6-((5R,8S)-3-(2,6-difluorophenyl)-9,9-dimethyl-5,6,7,8-tetrahydro-5,8-methanocinnolin-8-yl)-N-(2-hydroxyethyl)-N-methylpicolinamide] |
| 11.6 nM | COCCNC(=O)c1cccc([C@@]23CC[C@@H](c4cc(-c5c(F)cccc5F)nnc42)C3(C)C)n1 [Example 39, 6-((5R,8S)-3-(2,6-difluorophenyl)-9,9-dimethyl-5,6,7,8-tetrahydro-5,8-methanocinnolin-8-yl)-N-(2-methoxyethyl)picolinamide] |
| 9.9 nM | CC1(NC(=O)c2cccc([C@@]34CC[C@@H](c5cc(-c6c(F)cccc6F)nnc53)C4(C)C)n2)CC1 [Example 40, 6-((5R,8S)-3-(2,6-difluorophenyl)-9,9-dimethyl-5,6,7,8-tetrahydro-5,8-methanocinnolin-8-yl)-N-(1-methylcyclopropyl)picolinamide] |
| 25.6 nM | CC1(C)[C@H]2CC[C@]1(c1cncc(C(=O)NCCO)n1)c1nnc(-c3c(F)cccc3F)cc12 [Example 41, 6-((5R,8S)-3-(2,6-difluorophenyl)-9,9-dimethyl-5,6,7,8-tetrahydro-5,8-methanocinnolin-8-yl)-N-(2-hydroxyethyl)pyrazine-2-carboxamide] |
| 12.1 nM | CC1(C)[C@H]2CC[C@]1(c1cc(C#N)ccn1)c1nnc(-c3c(F)cccc3F)cc12 [Example 42] |
| 27 nM | CC1(C)[C@H]2CC[C@]1(c1nccc(C#N)n1)c1nnc(-c3c(F)cccc3F)cc12 [Example 43, 2-((5R,8R)-3-(2,6-difluorophenyl)-9,9-dimethyl-5,6,7,8-tetrahydro-5,8-methanocinnolin-8-yl)pyrimidine-4-carbonitrile] |
| 14.9 nM | CONC(=O)c1cccc([C@@]23CC[C@@H](c4cc(-c5c(F)cccc5F)nnc42)C3(C)C)n1 [Example 44, 6-((5R,8S)-3-(2,6-difluorophenyl)-9,9-dimethyl-5,6,7,8-tetrahydro-5,8-methanocinnolin-8-yl)-N-methoxypicolinamide] |
| 8.66 nM | CC1(C)[C@H]2CC[C@]1(c1cccc(C(N)=O)n1)c1nnc(-c3c(F)cccc3F)cc12 [Example 45, 6-((5R,8S)-3-(2,6-difluorophenyl)-9,9-dimethyl-5,6,7,8-tetrahydro-5,8-methanocinnolin-8-yl)picolinamide] |
| 43.2 nM | CC1(C)[C@H]2CC[C@]1(c1nccc(C(N)=O)n1)c1nnc(-c3c(F)cccc3F)cc12 [Example 46, 2-((5R,8R)-3-(2,6-difluorophenyl)-9,9-dimethyl-5,6,7,8-tetrahydro-5,8-methanocinnolin-8-yl)pyrimidine-4-carboxamide] |
| 58.3 nM | CNC(=O)c1ccnc([C@@]23CC[C@@H](c4cc(-c5c(F)cccc5F)nnc42)C3(C)C)n1 [Example 47, 2-((5R,8R)-3-(2,6-difluorophenyl)-9,9-dimethyl-5,6,7,8-tetrahydro-5,8-methanocinnolin-8-yl)-N-methylpyrimidine-4-carboxamide] |
| 15.6 nM | CC1(C)[C@@H]2CC[C@@]1(c1cccc(C(N)=O)n1)c1nnc(-c3c(F)cccc3F)cc12 [Example 48, 6-((5S,8R)-3-(2,6-difluorophenyl)-9,9-dimethyl-5,6,7,8-tetrahydro-5,8-methanocinnolin-8-yl)picolinamide] |
| 40.9 nM | C[C@@H](O)CNC(=O)c1cncc([C@@]23CC[C@@H](c4cc(-c5c(F)cccc5F)nnc42)C3(C)C)n1 [Example 49, 6-((5R,8S)-3-(2,6-difluorophenyl)-9,9-dimethyl-5,6,7,8-tetrahydro-5,8-methanocinnolin-8-yl)-N-((R)-2-hydroxypropyl)pyrazine-2-carboxamide] |
| 31.7 nM | C[C@H](O)CNC(=O)c1cncc([C@@]23CC[C@@H](c4cc(-c5c(F)cccc5F)nnc42)C3(C)C)n1 [Example 50, 6-((5R,8S)-3-(2,6-difluorophenyl)-9,9-dimethyl-5,6,7,8-tetrahydro-5,8-methanocinnolin-8-yl)-N-((S)-2-hydroxypropyl)pyrazine-2-carboxamide] |

| IC50 | SMILES |
| --- | --- |
| 59 nM | C[C@H](CO)NC(=O)c1cncc([C@@]23CC[C@@H](c4cc(-c5c(F)cccc5F)nnc42)C3(C)C)n1 [Example 51, 6-((5R,8S)-3-(2,6-difluorophenyl)-9,9-dimethyl-5,6,7,8-tetrahydro-5,8-methanocinnolin-8-yl)-N-((R)-1-hydroxypropan-2-yl)pyrazine-2-carboxamide] |
| 38 nM | C[C@@H](CO)NC(=O)c1cncc([C@@]23CC[C@@H](c4cc(-c5c(F)cccc5F)nnc42)C3(C)C)n1 [Example 52, 6-((5R,8S)-3-(2,6-difluorophenyl)-9,9-dimethyl-5,6,7,8-tetrahydro-5,8-methanocinnolin-8-yl)-N-((S)-1-hydroxypropan-2-yl)pyrazine-2-carboxamide] |
| 475 nM | CC1(C)[C@H]2CC[C@]1(c1cc(C(=O)O)ccn1)c1nnc(-c3c(F)cccc3F)cc12 [Example 53] |
| 29.5 nM | C[C@H](CO)NC(=O)c1cccc([C@@]23CC[C@@H](c4cc(-c5c(F)cccc5F)nnc42)C3(C)C)n1 [Example 54, 6-((5R,8S)-3-(2,6-difluorophenyl)-9,9-dimethyl-5,6,7,8-tetrahydro-5,8-methanocinnolin-8-yl)-N-((R)-1-hydroxypropan-2-yl)picolinamide] |
| 21.4 nM | C[C@@H](CO)NC(=O)c1cccc([C@@]23CC[C@@H](c4cc(-c5c(F)cccc5F)nnc42)C3(C)C)n1 [Example 55, 6-((5R,8S)-3-(2,6-difluorophenyl)-9,9-dimethyl-5,6,7,8-tetrahydro-5,8-methanocinnolin-8-yl)-N-((S)-1-hydroxypropan-2-yl)picolinamide] |
| 35.5 nM | CC1(C)[C@H]2CC[C@]1(c1cccc(C(=O)NCCO)n1)c1nnc(-c3c(F)cccc3F)cc12 [Example 56, 6-((5R,8S)-3-(2,6-difluorophenyl)-9,9-dimethyl-5,6,7,8-tetrahydro-5,8-methanocinnolin-8-yl)-N-(2-hydroxyethyl)picolinamide] |
| 71.1 nM | CC1(C)[C@H]2CC[C@]1(c1cccc(C(=O)N3CCS(=O)(=O)CC3)n1)c1nnc(-c3c(F)cccc3F)cc12 [Example 57, (6-((5R,8S)-3-(2,6-difluorophenyl)-9,9-dimethyl-5,6,7,8-tetrahydro-5,8-methanocinnolin-8-yl)pyridin-2-yl)(1,1-dioxidothiomorpholino)methanone] |
| 31.4 nM | CC1(C)[C@@H]2CC[C@@]1(c1cncc(C(N)=O)n1)c1nnc(-c3c(F)cccc3F)cc12 [Example 58, 6-((5S,8R)-3-(2,6-difluorophenyl)-9,9-dimethyl-5,6,7,8-tetrahydro-5,8-methanocinnolin-8-yl)pyrazine-2-carboxamide] |
| 15.9 nM | CC1(C)[C@@H]2CC[C@@]1(c1cccc(C#N)n1)c1nnc(-c3c(F)cccc3F)cc12 [Example 59, 6-((5S,8R)-3-(2,6-difluorophenyl)-9,9-dimethyl-5,6,7,8-tetrahydro-5,8-methanocinnolin-8-yl)picolinonitrile] |
| 13.6 nM | CC1(C)[C@H]2CC[C@]1(c1cccc(C(=O)NC3COC3)n1)c1nnc(-c3c(F)cccc3F)cc12 [Example 60, 6-((5R,8S)-3-(2,6-difluorophenyl)-9,9-dimethyl-5,6,7,8-tetrahydro-5,8-methanocinnolin-8-yl)-N-(oxetan-3-yl)picolinamide] |
| 34.8 nM | C[C@H](O)CNC(=O)c1cccc([C@@]23CC[C@@H](c4cc(-c5c(F)cccc5F)nnc42)C3(C)C)n1 [Example 61, 6-((5R,8S)-3-(2,6-difluorophenyl)-9,9-dimethyl-5,6,7,8-tetrahydro-5,8-methanocinnolin-8-yl)-N-((S)-2-hydroxypropyl)picolinamide] |
| 28.8 nM | C[C@@H](O)CNC(=O)c1cccc([C@@]23CC[C@@H](c4cc(-c5c(F)cccc5F)nnc42)C3(C)C)n1 [Example 62, 6-((5R,8S)-3-(2,6-difluorophenyl)-9,9-dimethyl-5,6,7,8-tetrahydro-5,8-methanocinnolin-8-yl)-N-((R)-2-hydroxypropyl)picolinamide] |
| 53.1 nM | CC(C)(O)CNC(=O)c1cccc([C@@]23CC[C@@H](c4cc(-c5c(F)cccc5F)nnc42)C3(C)C)n1 [Example 63, 6-((5R,8S)-3-(2,6-difluorophenyl)-9,9-dimethyl-5,6,7,8-tetrahydro-5,8-methanocinnolin-8-yl)-N-(2-hydroxy-2-methylpropyl)picolinamide] |
| 95.4 nM | CC1(C)[C@H]2CC[C@]1(c1cc(C(=O)NCCO)ccn1)c1nnc(-c3c(F)cccc3F)cc12 [Example 64] |
| 104 nM | CC1(C)[C@H]2CC[C@]1(c1cc(C(=O)NC3COC3)ccn1)c1nnc(-c3c(F)cccc3F)cc12 [Example 65] |
| 161 nM | Cc1nnc(-c2ccnc([C@@]34CC[C@@H](c5cc(-c6c(F)cccc6F)nnc53)C4(C)C)c2)o1 [Example 66] |
